# Test results as given in patent publication US12590083B2, “Inhibitors of spinster homolog 2 (SPNS2) for use in therapy” (University of Virginia Patent Foundation, priority 2019, dated 2026).
# Structures can show the parent of a compound that is named as a salt.
# Molecular target: T1, human SPNS2 (Homo sapiens, UniProt Q8IVW8)
# T1 construct: expressed in transfected cells; host or cells: Saccharomyces cerevisiae strain with forced expression of a mammalian SphK and human SPNS2
# T1 sequence (Q8IVW8 1-549): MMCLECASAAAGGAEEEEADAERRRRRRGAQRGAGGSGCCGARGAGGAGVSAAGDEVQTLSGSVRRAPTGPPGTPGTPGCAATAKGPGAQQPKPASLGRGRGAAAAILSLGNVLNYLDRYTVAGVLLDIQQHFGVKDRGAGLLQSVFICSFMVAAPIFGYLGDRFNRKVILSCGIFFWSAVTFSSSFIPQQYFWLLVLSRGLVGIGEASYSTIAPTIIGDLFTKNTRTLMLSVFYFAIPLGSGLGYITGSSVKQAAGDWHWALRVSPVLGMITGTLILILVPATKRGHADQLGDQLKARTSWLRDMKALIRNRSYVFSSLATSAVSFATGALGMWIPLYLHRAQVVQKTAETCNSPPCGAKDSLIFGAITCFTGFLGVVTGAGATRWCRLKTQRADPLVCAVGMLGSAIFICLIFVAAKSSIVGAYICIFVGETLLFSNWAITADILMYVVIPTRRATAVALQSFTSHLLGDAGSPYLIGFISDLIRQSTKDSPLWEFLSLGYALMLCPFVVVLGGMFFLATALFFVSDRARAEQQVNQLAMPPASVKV
# Test: S1P transporter assay: growth of S. cerevisiae strain with forced expression of a mammalian SphK and human SPNS2
# Type: cell-based
# Conditions: in vitro inhibition of SPNS2; growth of S. cerevisiae strain expressing mammalian SphK and human SPNS2; compounds as their pharmaceutical salts
# Method in brief: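 S. cerevisiae strain with forced expression of a mammalian SphK and human SPNS2; since excess phospho-LCB inhibits yeast growth, SPNS2 inhibitors reduce growth of this strain. Inhibition measured in vitro as decreased strain growth.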
row,Compound,IC50 [nM]
1,"CCCCCCCCCCc1ccc(Nc2ccc(-c3noc([C@@H]4CCNC4)n3)cn2)cc1 [Compound 13h, (R)—N-(4-decylphenyl)-5-(5-(pyrrolidin-3-yl)-1,2,4-oxadiazol-3-yl)pyridin-2-amine hydrochloride]",> 2000
2,"CCCCCCCOc1ccc2cc(-c3noc([C@@H]4CCN(C(=N)N)C4)n3)ccc2c1 [Compound 7kk, (R)-3-(3-(6-(heptyloxy)naphthalen-2-yl)-1,2,4-oxadiazol-5-yl)pyrrolidine-1-carboximidamide hydrochloride]",≤ 2000
3,"CCCCCCCCCc1ccc(-c2noc(C3CN(C(=N)N)C3)n2)cc1C(F)(F)F [Compound 30a, 3-(3-(4-nonyl-3-(trifluoromethyl)phenyl)-1,2,4-oxadiazol-5-yl)azetidine-1-carboximidamide hydrochloride]",≤ 2000
4,"c1ccc(CCCOc2ccc(-c3noc(C4CNC4)n3)cc2)cc1 [Compound 13j, 5-(azetidin-3-yl)-3-(4-(3-phenylpropoxy)phenyl)-1,2,4-oxadiazole hydrochloride]",> 2000
5,"N=C(N)N1CC(c2nc(-c3ccc(OCCCc4ccccc4)c(C(F)(F)F)c3)no2)C1 [Compound 23i, 3-(3-(4-(3-phenylpropoxy)-3-(trifluoromethyl)phenyl)-1,2,4-oxadiazol-5-yl)azetidine-1-carboximidamide hydrochloride]",> 2000
6,"N=C(N)N1CC(c2nc(-c3ccc(OCCCc4ccccc4)cc3)no2)C1 [Compound 15j, 3-(3-(4-(3-phenylpropoxy)phenyl)-1,2,4-oxadiazol-5-yl)azetidine-1-carboximidamide hydrochloride]",> 2000
7,"CCCCNC(=O)c1ccc(-c2noc([C@@H]3CCNC3)n2)cc1 [Compound 38o, (R)—N-butyl-4-(5-(pyrrolidin-3-yl)-1,2,4-oxadiazol-3-yl)benzamide hydrochloride]",> 2000
8,"FC(F)(F)c1cc(-c2noc([C@@H]3CCCNC3)n2)ccc1OCCCc1ccccc1 [Compound 21j, (R)-3-(4-(3-phenylpropoxy)-3-(trifluoromethyl)phenyl)-5-(piperidin-3-yl)-1,2,4-oxadiazole hydrochloride]",> 2000
9,"CCCCCCCCCCc1ccc(-c2noc(C[C@@H]3CCN(C(=N)N)C3)n2)cc1C(F)(F)F [Compound 30g, (S)-3-((3-(4-decyl-3-(trifluoromethyl)phenyl)-1,2,4-oxadiazol-5-yl)methyl)pyrrolidine-1-carboximidamide hydrochloride]",> 2000
10,"CCCCc1ccc(Nc2ccc(-c3noc([C@@H]4CCN(C(=N)N)C4)n3)cn2)cc1 [Compound 15i, (R)-3-(3-(6-((4-butylphenyl)amino)pyridin-3-yl)-1,2,4-oxadiazol-5-yl)pyrrolidine-1-carboximidamide hydrochloride]",> 2000
11,"Fc1cc(Nc2ccc(-c3noc([C@@H]4CCCNC4)n3)cn2)ccc1OC(F)(F)F [Compound 13c, (R)—N-(3-fluoro-4-(trifluoromethoxy)phenyl)-5-(5-(piperidin-3-yl)-1,2,4-oxadiazol-3-yl)pyridin-2-amine hydrochloride]",> 2000
12,"CCCCCCCCCO/N=C(\C)c1ccc(-c2noc([C@@H]3CCN(C(=N)N)C3)n2)cc1 [Compound 40j, (R)-3-(3-(4-(1-((nonyloxy)imino)ethyl)phenyl)-1,2,4-oxadiazol-5-yl)pyrrolidine-1-carboximidamide hydrochloride]",> 2000
